Test results as given in patent publication US10174015B2, “Substituted heterocyclic derivative, preparation method and use thereof” (Xiamen University, priority 2014, dated 2019).
Like-named read-outs stand apart in the source and are kept apart here.

Experiments:
RAW264.7 cells = experiment: Assay on cytotoxicity (CCK8); assay type: cell-based; conditions: RAW264.7 cells, 3, 10, 30, 100 μM, 24 h and 48 h; compound 9 except at 100 μM
Protocol: RAW264.7 cells in good growing state (purchased from American Type Culture Collection, ATCC, Beijing), at a density of about 80%-90%, were scraped off with a cell scraper to prepare a cell suspension. After counting, the cells were accurately seeded in a 96-well plate, at 100 μL per well, wherein the total number of cells retained the same, at about 20000 cells/well, and the same amount of culture medium (which was DMEM (Gibco, Shanghai) medium containing 10% fetal bovine serum (PAA), 1% penicillin-streptomycin (PAA)) was added. The 96-well plate was placed in an incubator to preincubate for 24 h (37° C., 5% CO2). The marginal wells of the plate were filled with an equal amount of PBS, but were not seeded with cells, so as to prevent evaporation of the culture medium in the experimental group. […] After incubating the plate in the incubator for a period of time (24 or 48 h), 10 μL CCK8 solution was added to each well, and then the plate was incubated in incubator for 1.5 h. the absorbance OD value was determined at 450 nm by microplate reader, and the OD value was proportional to the number of living cells. […]

zebrafish embryos = assay type: in vivo; conditions: for Death number (72 h): n = 30; for observation of zebrafish embryo development: 48 h; for Body length (72 h) / Hatching number (72 h) / Heartbeat (72 h) / Unhatching number (72 h) / hatching rate: zebrafish, in vivo, 72 h
Protocol: By the same method described above, zebrafish fertilized eggs were cultured. 7 Groups were set for each test compound, including 5 experimental groups relating to the test compound at different concentrations (solutions containing the test compound at different concentrations were prepared by using zebrafish embryo culture medium, wherein the concentrations were 100 mg/L, 10 mg/L, 1 mg/L, 0.1 mg/L, 0.01 mg/L), 1 solvent control group (DMSO) and 1 blank control group. The fertilized eggs were placed and cultured in a 28.5° C. incubator, a certain humidity was ensured in the culture environment. Culture medium containing a test compound was prepared, and the culture medium was added to a 96-well plate in advance, and each fertilized egg (by reference to the experimental method in OECD No. 212 document, fertilized eggs, which developed normally within 24 h after fertilization, were selected and subjected to exposure. Transparent fish eggs visible to naked eye were normally fertilized, while white fish eggs were dead and discarded. After the selection, the normally fertilized eggs had begun to divide as observed under microscope) was then independently placed in a different well, and cultured in the culture medium containing a test compound at a different concentration. Embryo development status at different stages were observed and photographed with invert microscope, including:
I. Morphological observation: the developmental states of fertilized eggs (yolk being coagulated or not, eye spot, pericardial sac being edematous or not, bloodstream being existing or not, tail development status, and the like) were observed and photographed at 48 h, 72 h, and 96 h;
II. Hatching number and death number were counted at 72 h after fertilization, and hatching rate and mortality were calculated;
III. Body length of the hatched young fishes at 72 h was measured (measured after photographing with invert microscope); […]
V. Heartbeat of young fishes (times/min) was recorded at 72 h and 96 h after fertilization (Recording method: heartbeat of young fishes could be clearly observed under microscope, and the number of heartbeats was recorded for 30 s).

SNI neuropathic pain = experiment: Neuropathic pain mouse model induced by spared nerve injury (SNI); assay type: in vivo, C57BL/6 mice; conditions: SNI mice; for effect compared to positive control drug gabapentin: 10 mg/kg i.p. vs gabapentin 100 mg/kg, 1 h after administration
Protocol: In the Experimental example, compounds to be evaluated or compounds to be tested or test compounds used are the Compounds 1-46 prepared in the Examples according to the invention. In the Experimental example, all the agents for injection, including compounds to be evaluated or compounds to be tested or test compounds, and positive control drug, were dissolved in a mixed solvent of PEG400:Tween 80:normal saline (at a volume ratio of 5:5:90), at a concentration of 5 mg/mL.
Neuropathic pain mouse model induced by spared nerve injury (SNI) is a common animal model for studying neuropathic pain medically. The invention uses the model to evaluate the therapeutic effects of the compounds on neuropathic pain, wherein the model can represent peripheral neuropathic pain including, but not limited to post-herpetic neuralgia, pain caused by diabetic perineuropathy, neurothlipsis and exudation caused by tumor, lumbar surgery failure syndrome, neuropathic pain caused by lumbar disc protrusion, postpartum neuralgia, trigeminal neuralgia, chemotherapy-induced multiple neuropathic pain, post-radiotherapy plexopathy, and radicular neuralgia.
C57BL/6 mice (purchased from Shanghai SLAC Laboratory Animal Co., Ltd) were anesthetized by intraperitoneal injection with pentobarbital sodium (40 mg/kg), and skin from knee joint to gluteal region was subjected to skin preparation and disinfection. After the mice were fixed, the knee joint part was cut about 1 cm longitudinally with bistoury, and muscle tissues were separated by blunt dissection to expose sciatic nerve. The tibial and common peroneal nerve branches of sciatic nerve stem were cut off carefully, and the cut was then stitched up. The mice was placed in a clean observation cage. In the sham-operation group, only sciatic nerve was exposed without cutting the tibial and common peroneal nerve branches. From the day before the experiment to 24 h after the operation, the plantar edges of the mice were stimulated everyday by […] (Ugo Basile Company (Italy), Product ID: 37450), and data was collected automatically to obtain the threshold value of mice to mechanical stimulation. […] The positive control drug gabapentin was administered at a dose of 100 mg/kg. All the agents to be injected were dissolved in a mixed solvent of PEG400:Tween 80:normal saline (at a volume ratio of 5:5:90), at a concentration of 5 mg/mL. By comparing the threshold values (the acting force of when the mouse retracting the paw) at different administration time in different administration groups, the compound was evaluated for its analgesic effect on neuropathic pain.

[1] = 10 mg/kg i.p. (gabapentin 100 mg/kg), 4 h after administration
[2] = 10 mg/kg intraperitoneal, 1 h and 4 h after administration (FIGS. 1 and 2)

Structure (SMILES) | effect on cell viability (RAW264.7 cells) | Death number (72 h) (zebrafish embryos; 0.01 mg/L) | Death number (72 h) (zebrafish embryos; 0.1 mg/L) | Death number (72 h) (zebrafish embryos; 1 mg/L) | Death number (72 h) (zebrafish embryos; 10 mg/L) | observation of zebrafish embryo development (zebrafish embryos; 100 mg/L) | Death number (72 h) (zebrafish embryos; 100 mg/L) | Body length (72 h) (zebrafish embryos; 0.01 mg/L) [mm] | Hatching number (72 h) (zebrafish embryos; 0.01 mg/L) | Heartbeat (72 h) (zebrafish embryos; 0.01 mg/L) [per min] | Unhatching number (72 h) (zebrafish embryos; 0.01 mg/L) | Body length (72 h) (zebrafish embryos; 0.1 mg/L) [mm] | Hatching number (72 h) (zebrafish embryos; 0.1 mg/L) | Heartbeat (72 h) (zebrafish embryos; 0.1 mg/L) [per min] | Unhatching number (72 h) (zebrafish embryos; 0.1 mg/L) | Body length (72 h) (zebrafish embryos; 1 mg/L) [mm] | Hatching number (72 h) (zebrafish embryos; 1 mg/L) | Heartbeat (72 h) (zebrafish embryos; 1 mg/L) [per min] | Unhatching number (72 h) (zebrafish embryos; 1 mg/L) | Body length (72 h) (zebrafish embryos; 10 mg/L) [mm] | also measured
O=C(CCCCCc1cccc(Cl)c1)N1CCOC1=O [Compound 9, 3-Chlorophenylhexanoyl Oxazolidinone] | no effect on cell viability | 0 | 0 | 0 | 0 | no zebrafish embryos died, but phenomena such as pericardial cyst, no heartbeat, no bloodstream, no tail development and the like occurred in embryos | 30 | 4.01 ± 0.24 | 30 | 124 ± 0.27 | 0 | 4.03 ± 0.62 | 30 | 124 ± 1.17 | 0 | 4.01 ± 0.26 | 30 | 124 ± 1.08 | 0 | 3.82 ± 0.44 | Hatching number (72 h) (zebrafish embryos; 10 mg/L): 28; Heartbeat (72 h) (zebrafish embryos; 10 mg/L): 117 ± 2.24 per min; Unhatching number (72 h) (zebrafish embryos; 10 mg/L): 2; hatching rate (zebrafish embryos; 10 mg/L): 93.3%; Hatching number (72 h) (zebrafish embryos; 100 mg/L): 0; Unhatching number (72 h) (zebrafish embryos; 100 mg/L): 30; effect of inhibiting central neuropathic pain (SNI neuropathic pain; [1]): retained a relatively strong effect of inhibiting central neuropathic pain; effect compared to positive control drug gabapentin (SNI neuropathic pain): not as effective as the control drug; effect of inhibiting central neuropathic pain (SNI neuropathic pain; [2]): significant effects of inhibiting central neuropathic pain
O=C(CCCCCc1ccccc1)N1CCOC1=O [Compound 2, Phenylhexanoyl Oxazolidinone] | no effect on cell viability | 0 | 0 | 0 | 0 | no zebrafish embryos died, but phenomena such as pericardial cyst, no heartbeat, no bloodstream, no tail development and the like occurred in embryos | 30 | 3.90 ± 0.93 | 30 | 124 ± 1.67 | 0 | 4.08 ± 0.09 | 30 | 123 ± 2.45 | 0 | 3.92 ± 0.10 | 30 | 123 ± 3.03 | 0 | 3.78 ± 0.05 | Hatching number (72 h) (zebrafish embryos; 10 mg/L): 28; Heartbeat (72 h) (zebrafish embryos; 10 mg/L): 117 ± 3.90 per min; Unhatching number (72 h) (zebrafish embryos; 10 mg/L): 2; hatching rate (zebrafish embryos; 10 mg/L): 93.3%; Hatching number (72 h) (zebrafish embryos; 100 mg/L): 0; Unhatching number (72 h) (zebrafish embryos; 100 mg/L): 30; effect of inhibiting central neuropathic pain (SNI neuropathic pain; [1]): retained a relatively strong effect of inhibiting central neuropathic pain; effect compared to positive control drug gabapentin (SNI neuropathic pain): not as effective as the control drug; analgesic effect (SNI neuropathic pain; 10 mg/kg i.p., 10 h after administration (FIG. 3)): still had a sustained analgesic effect; effect of inhibiting central neuropathic pain (SNI neuropathic pain; [2]): significant effects of inhibiting central neuropathic pain
